In this experiment the test system is HCV genotype 1b replicon in Huh 7 cells. The experiment is described as follows: HCV replicon assay (1b_Huh-Luc/Neo-ET cell line, luciferase readout). The format is cell-based. The note with it: Hepatitis C virus, Huh-7; HCV 1b replicon; read-out: Inhibition of HCV genotype 1b. A digest of the protocol: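 Huh 7 cells carrying a bicistronic genotype 1b luciferase replicon were treated with compound in triplicate the day after plating and incubated 72 h. Luciferase activity expressed as % of untreated control; EC50 from a four-parameter logistic fit, repeated several times.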

Experimental findings from US8877707B2, “Inhibitors of HCV NS5A” (Presidio Pharmaceuticals, Inc., priority 2010, dated 2014) are described below.

Turning to `C#CC[C@H](NC(=O)OC)C(=O)N1CCC[C@H]1c1ncc(-c2ccc3nc(-c4ccc(-c5cnc([C@@H]6CCCN6C(=O)[C@H](NC(=O)OC)c6ccccc6)[nH]5)cc4F)ccc3c2)[nH]1` [compound 487], the EC50 was less than 1 nM.
For the compound `COC(=O)N[C@H](C(=O)N1CCC[C@H]1c1ncc(-c2cnc3cc(-c4ccc(-c5cnc([C@@H]6CCCN6C(=O)[C@@H](NC(=O)OC)[C@@H](C)OC)[nH]5)cc4)ccc3c2)[nH]1)C(C)C` [compound 488], the EC50 is less than 1 nM.
As for `COC(=O)N[C@H](C(=O)N1CCC[C@H]1c1ncc(-c2ccc3nc(-c4ccc(-c5cnc([C@@H]6CCCN6C(=O)[C@H](NC(=O)OC)c6ccccc6)[nH]5)cc4)ccc3c2)[nH]1)[C@@H](C)OC` [compound 489], the EC50 was less than 1 nM.
Regarding `COC(=O)N[C@H](C(=O)N1CCC[C@H]1c1ncc(-c2ccc3nc(-c4ccc(-c5cnc([C@@H]6CCCN6C(=O)[C@H](NC(=O)OC)c6ccccc6)[nH]5)cc4)ccc3c2)[nH]1)[C@@H](C)O` [compound 490], the EC50 was less than 1 nM.
Under `COC(=O)N[C@@H](C)C(=O)N1CCC[C@H]1c1ncc(-c2ccc3nc(-c4ccc(-c5cnc([C@@H]6CCCN6C(=O)[C@H](NC(=O)OC)c6ccccc6)[nH]5)cc4)ccc3c2)[nH]1` [compound 491] stands less than 1 nM; under `CC[C@H](C)[C@H](NC(=O)OC)C(=O)N1CCC[C@H]1c1ncc(-c2ccc3nc(-c4ccc(-c5cnc([C@@H]6CCCN6C(=O)[C@H](NC(=O)OC)c6ccccc6)[nH]5)cc4)ccc3c2)[nH]1` [compound 492], less than 1 nM; under `COC(=O)N[C@H](C(=O)N1CCC[C@H]1c1ncc(-c2ccc3nc(-c4ccc(-c5cnc([C@@H]6CN(C(C)=O)CCN6C(=O)[C@@H](NC(=O)OC)C(C)C)[nH]5)cc4)ccc3c2)[nH]1)C(C)C` [compound 493], less than 1 nM.
With `COC(=O)N[C@@H](C(=O)N1CCC[C@H]1c1ncc(-c2ccc3nc(-c4ccc(-c5cnc([C@@H]6CN(C(C)=O)CCN6C(=O)[C@H](NC(=O)OC)c6ccccc6)[nH]5)cc4)ccc3c2)[nH]1)c1ccccc1` [compound 494], the EC50 was less than 1 nM.
The value for `COC(=O)N[C@H](C(=O)N1CCN(C(C)=O)C[C@H]1c1ncc(-c2ccc(-c3ccc4cc(-c5cnc([C@@H]6CCCN6C(=O)[C@@H](NC(=O)OC)C6CCOCC6)[nH]5)ccc4n3)cc2)[nH]1)C(C)C` [compound 495] was less than 1 nM.
The value for `COC[C@H](NC(=O)OC)C(=O)N1CCC[C@H]1c1ncc(-c2ccc3cc(-c4ccc(-c5cnc([C@@H]6CCCN6C(=O)[C@H](NC(=O)OC)c6cccs6)[nH]5)cc4)ccc3c2)[nH]1` [compound 496] was less than 1 nM; that for `COC(=O)N[C@H](C(=O)N1CCC[C@H]1c1ncc(-c2ccc3cc(-c4ccc(-c5cnc([C@@H]6CCCN6C(=O)[C@H](NC(=O)OC)c6cccs6)[nH]5)cc4)ccc3c2)[nH]1)C(C)C` [compound 497] was less than 1 nM.
For `COC(=O)N[C@H](C(=O)N1CCC[C@H]1c1ncc(-c2ccc3cc(-c4ccc(-c5cnc([C@@H]6CCCN6C(=O)[C@H](NC(=O)OC)c6cccs6)[nH]5)cc4)ccc3c2)[nH]1)C(C)O` (stereo partly drawn) [compound 498], the EC50 was less than 1 nM.
Take `COC(=O)N[C@@H](C)C(=O)N1CCC[C@H]1c1ncc(-c2ccc3cc(-c4ccc(-c5cnc([C@@H]6CCCN6C(=O)[C@H](NC(=O)OC)c6ccccc6)[nH]5)nn4)ccc3c2)[nH]1` [compound 499]: the EC50 was less than 1 nM.
As for `COC(=O)N[C@H](C(=O)N1CCC[C@H]1c1ncc(-c2ccc3cc(-c4ccc(-c5cnc([C@@H]6CCCN6C(=O)[C@H](NC(=O)OC)c6ccccc6)[nH]5)nn4)ccc3c2)[nH]1)[C@@H](C)OC` [compound 500], the EC50 was less than 1 nM.
The value for `COC(=O)N[C@H](C(=O)N1CCC[C@H]1c1ncc(-c2ccc3cc(-c4ccc(-c5cnc([C@@H]6CCCN6C(=O)[C@H](NC(=O)OC)c6ccccc6)[nH]5)nn4)ccc3c2)[nH]1)[C@@H](C)O` [compound 501] was less than 1 nM; that for `COC(=O)N[C@@H](C)C(=O)N1CCC[C@H]1c1ncc(-c2ccc3cc(-c4ccc(-c5cnc([C@@H]6CCCN6C(=O)[C@H](NC(=O)OC)c6cccs6)[nH]5)cc4)ccc3c2)[nH]1` [compound 502] was less than 1 nM.
As for `CC[C@H](C)[C@H](NC(=O)OC)C(=O)N1CCC[C@H]1c1ncc(-c2ccc(-c3ccc4cc(-c5cnc([C@@H]6CCCN6C(=O)[C@@H](NC(=O)OC)[C@@H](C)OC)[nH]5)ccc4c3)cc2)[nH]1` [compound 503], the EC50 was less than 1 nM.
Under `COC(=O)N[C@H](C(=O)N1CCC[C@H]1c1ncc(-c2ccc(-c3ccc4cc(-c5cnc([C@@H]6CCCN6C(=O)[C@@H](NC(=O)OC)[C@@H](C)OC)[nH]5)ccc4c3)cc2)[nH]1)C1CCCC1` [compound 504] stands less than 1 nM; under `CCC(CC)[C@H](NC(=O)OC)C(=O)N1CCC[C@H]1c1ncc(-c2ccc(-c3ccc4cc(-c5cnc([C@@H]6CCCN6C(=O)[C@@H](NC(=O)OC)[C@@H](C)OC)[nH]5)ccc4c3)cc2)[nH]1` [compound 505], less than 1 nM.
`COC(=O)N[C@H](C(=O)N1CCC[C@H]1c1ncc(-c2ccc3cc(-c4cnc(-c5cnc([C@@H]6CCCN6C(=O)[C@@H](NC(=O)OC)C(C)C)[nH]5)cn4)ccc3c2)[nH]1)C(C)C` [compound 506]: the EC50 is less than 1 nM.
The value for `COC(=O)N[C@@H](C(=O)N1CCC[C@H]1c1ncc(-c2ccc3nc(-c4ccc5nc([C@@H]6CCCN6C(=O)[C@H](NC(=O)OC)c6ccccc6)[nH]c5c4)ccc3c2)[nH]1)c1ccccc1` [compound 507] was less than 1 nM; that for `O=C(N[C@@H](C(=O)N1CCC[C@H]1c1ncc(-c2ccc3nc(-c4ccc5nc([C@@H]6CCCN6C(=O)[C@H](NC(=O)OC6CCOCC6)c6ccccc6)[nH]c5c4)ccc3c2)[nH]1)c1ccccc1)OC1CCOCC1` [compound 508] was less than 1 nM.
The value for `COC(=O)N[C@H](C(=O)N1CCC[C@H]1c1nc2ccc(-c3ccc4cc(-c5cnc([C@@H]6CCCN6C(=O)[C@H](NC(=O)OC6CCOCC6)c6ccccc6)[nH]5)ccc4n3)cc2[nH]1)C(C)C` [compound 509] was less than 1 nM.
Regarding `COC(=O)N[C@H](C(=O)N1CCC[C@H]1c1nc2ccc(-c3ccc4cc(-c5cnc([C@@H]6CCCN6C(=O)[C@@H](NC(=O)OC)[C@@H](C)OC)[nH]5)ccc4c3)cc2[nH]1)C(C)C` [compound 510], the EC50 is less than 1 nM.
For the compound `CC[C@H](C)[C@H](NC(=O)OC)C(=O)N1CCC[C@H]1c1nc2ccc(-c3ccc4cc(-c5cnc([C@@H]6CCCN6C(=O)[C@@H](NC(=O)OC)[C@@H](C)OC)[nH]5)ccc4c3)cc2[nH]1` [compound 511], the EC50 was less than 1 nM.
As for `COC(=O)NC(C(=O)N1CCC[C@H]1c1ncc(-c2ccc3cc(-c4ccc5nc([C@@H]6CCCN6C(=O)C(NC(=O)OC)=C(C)C)[nH]c5c4)ccc3c2)[nH]1)=C(C)C` [compound 512], the EC50 is less than 1 nM.
Under `COC[C@H](NC(=O)OC)C(=O)N1CCC[C@H]1c1ncc(-c2ccc3cc(-c4ccc5nc([C@@H]6CCCN6C(=O)[C@@H](NC(=O)OC)C(C)C)[nH]c5c4)ccc3c2)[nH]1` [compound 513] stands less than 1 nM.
Under `CC[C@H](C)[C@H](NC(=O)OC)C(=O)N1CCC[C@H]1c1nc2ccc(-c3ccc4cc(-c5cnc([C@@H]6CCCN6C(=O)[C@H](COC)NC(=O)OC)[nH]5)ccc4c3)cc2[nH]1` [compound 514] stands less than 1 nM; under `COC(=O)N[C@H](C(=O)N1CCC[C@H]1c1ncc(-c2ccc3cc(-c4ccc5nc([C@@H]6CCCN6C(=O)[C@@H](NC(=O)OC)C6CCCC6)[nH]c5n4)ccc3c2)[nH]1)C1CCCC1` [compound 515], less than 1 nM.
Under `COC(=O)N[C@H](C(=O)N1CCC[C@H]1c1ncc(-c2ccc3cc(-c4ccc5nc([C@@H]6CCCN6C(=O)[C@@H](NC(=O)OC)C6CC6)[nH]c5n4)ccc3c2)[nH]1)C1CC1` [compound 516] stands less than 1 nM; under `COC(=O)N[C@H](C(=O)N1CCC[C@H]1c1ncc(-c2ccc3cc(-c4ccc5nc([C@@H]6CCCN6C(=O)[C@@H](NC(=O)OC)C6CCCCC6)[nH]c5n4)ccc3c2)[nH]1)C1CCCCC1` [compound 517], less than 1 nM.
As for `CCC(CC)[C@H](NC(=O)OC)C(=O)N1CCC[C@H]1c1ncc(-c2ccc3cc(-c4ccc5nc([C@@H]6CCCN6C(=O)[C@@H](NC(=O)OC)C(CC)CC)[nH]c5c4)ncc3c2)[nH]1` [compound 518], the EC50 was less than 1 nM.
Take `COC(=O)N[C@H](C(=O)N1CCC[C@H]1c1ncc(-c2ccc3cc(-c4cnc5nc([C@@H]6CCCN6C(=O)[C@@H](NC(=O)OC)[C@@H](C)OC)[nH]c5c4)ccc3c2)[nH]1)[C@@H](C)OC` [compound 519]: the EC50 is less than 1 nM.
Under `CCC(CC)[C@H](NC(=O)OC)C(=O)N1CCC[C@H]1c1ncc(-c2ccc3cc(-c4ccc5nc([C@@H]6CCCN6C(=O)[C@@H](NC(=O)OC)C(CC)CC)[nH]c5n4)ccc3c2)[nH]1` [compound 520] stands less than 1 nM; under `CC[C@H](C)[C@H](NC(=O)OC)C(=O)N1CCC[C@H]1c1ncc(-c2ccc3cc(-c4ccc5nc([C@@H]6CCCN6C(=O)[C@@H](NC(=O)OC)[C@@H](C)CC)[nH]c5n4)ccc3c2)[nH]1` [compound 521], less than 1 nM.
As for `CC[C@@H](C)[C@H](NC(=O)OC)C(=O)N1CCC[C@H]1c1ncc(-c2ccc3cc(-c4ccc5nc([C@@H]6CCCN6C(=O)[C@@H](NC(=O)OC)[C@H](C)CC)[nH]c5n4)ccc3c2)[nH]1` [compound 522], the EC50 was less than 1 nM.
Turning to `COC(=O)N[C@@H](C(=O)N1CCC[C@H]1c1ncc(-c2ccc3cc(-c4ccc5nc([C@@H]6CCCN6C(=O)[C@H](NC(=O)OC)C6=CCC=CC6)[nH]c5n4)ccc3c2)[nH]1)C1=CCC=CC1` [compound 523], the EC50 is less than 1 nM.
Under `CC[C@H](C)[C@H](NC(=O)OC)C(=O)N1CCC[C@H]1c1nc2ccc(-c3ccc4cc(-c5cnc([C@@H]6CCCN6C(=O)[C@@H](NC(=O)OC)[C@@H](C)O)[nH]5)ccc4c3)cc2[nH]1` [compound 524] stands less than 1 nM.
The value for `COC(=O)N[C@H](C(=O)N1CCC[C@H]1c1ncc(-c2ccc3cc(-c4ccc5nc([C@@H]6CCCN6C(=O)[C@@H](NC(=O)OC)[C@@H](C)OC)[nH]c5c4)ccc3c2)[nH]1)C(C)C` [compound 525] was less than 1 nM.
